In article PMC12083136 (Microbiome, 2025):

System: ruminal bacterial urease
Experiment: urease activity
Assay type: biochemical

C=CCS[S+]([O-])CC=C (stereo not shown) [allicin]
IC50: 126.8 ± 1.2 µM
